In publication PMC6983514 (British Journal of Clinical Pharmacology, 2020):
Values joined by “and” are separate entries in the source; they are usually repeats but may differ in a detail not shown here. Identical values can stand only once. Like-named read-outs stand apart in the source and are kept apart here.

Assays:
[1] = Main analysis: all subsets multivariable linear regression with BIC model averaging of clinical factors/comedications on ATV analyte levels, ratios and sum total; assay type: in vivo, human; conditions: log10 transformed plasma concentration, model averaged coefficient
From the text: All variables were considered in model selection (see below) except hypertension, hyperlipidaemia, and prior CVD.
Prior to modelling, all endpoints were log10 transformed to normalise the distribution of (observed) residuals and optimise homoscedasticity.
Third, the derived models were ranked according to the Bayesian information criterion (BIC), which is more conservative than the corrected Akaike information criterion because BIC carries a larger penalty for increasing model complexity.19 Fourth, all models with a BIC within 2 of the model with the lowest BIC (BIC Δ < 2) underwent model averaging to produce model averaged (unstandardised) coefficients and standard errors for all the covariates included in this set of models, to enable multimodel inferences. The model selection constraint of Δ < 2 was chosen because the empirical evidence supporting each of these models is considered essentially equivalent.19 Conditional averaging was used, and so for a given covariate, its coefficient and standard error were averaged from only those models with BIC Δ < 2 that contained the covariate.20 This approach was taken because of the interest in assessing the relationship between individual covariates and the endpoints, with overall model predictive capability of secondary importance.21 The relative importance of each of the selected covariates to the endpoint was assessed by summing the BIC‐derived model weight for all models that underwent model averaging and contained the covariate. The P‐value for each covariate in the final model is provided for reference only. The utility of the final produced model for describing the observed variation in the endpoint was assessed using the unadjusted R^2 value. This process was undertaken for all endpoints. The above described covariate selection and model averaging was carried out using the R statistical package, MuMIn. 20

[2] = Plasma concentrations of ATV and metabolites by HPLC-MS/MS in NSTE-ACS patients at V2 (1 month); assay type: in vivo, human; conditions: for concentration at […] / concentration at 1 month: human, plasma, oral; for concentration at […]: plasma at V2, median […] since last ATV (estimated), read-out: Conc (ng/mL), median (IQR); for concentration at 1 month: median ATV concentration, unadjusted
From the text: This investigation harnessed the Pharmacogenetics of Acute Coronary Syndrome (PhACS) study, described previously.13 Briefly, PhACS was a UK multicentre prospective observational study that recruited 1470 eligible patients hospitalised with an NSTE‐ACS between 2008–2012 and followed them up at 1 (V2) and 12 (V3) months. Demographic, comorbidity and prescription information was collected at baseline; drug use, drug adherence, and new clinical events were captured during follow up. PhACS participants were genotyped using the Illumina HumanOmniExpressExome‐8 v1.0 BeadChip at Edinburgh Genomics (Roslin Institute, Scotland).
Briefly, 50‐μL plasma samples were first mixed with 20 μL of a composite internal standard solution containing a deuterated internal standard for each analyte, and then diluted further by addition of 180 μL 100% acetonitrile containing 0.3% acetic acid. Following centrifugation, the supernatant was diluted 1:2 in water and a 5‐μL aliquot injected for analysis. Analytes were separated using a 2.7‐μm Halo C18 column (50 × 2.1 mm ID, 90 Å, Hichrom Limited, Reading, UK, part number: 92812–402) with gradient elution, housed within a Shimadzu Nexera X2 modular system (Kyoto, Japan). Analytes were detected in low mass positive ionisation mode using multiple reaction monitoring (Sciex triple quadrupole 6500 QTRAP mass spectrometer with a Turbo electrospray source, AB Sciex, Warrington, UK). […] Calibration and quality control (QC) samples were prepared in pooled healthy human volunteer K3 EDTA plasma (Sera Laboratories International, West Sussex, UK).

[3] = system: 3‐hydroxy‐3‐methyl‐glutaryl‐coenzyme A reductase (HMGCR); conditions: background statement in introduction; cited from earlier work
[4] = Genotype-stratified analysis: loop diuretic association with endpoints by ABCG2 rs2231142 (Q141K); assay type: in vivo, human; conditions: adjusted
Procedure: (§1) Exploratory genotype‐stratified analyses were carried out to further assess key identified drug–drug interactions. Specifically, the adjusted association of PPIs with endpoints was determined following cohort stratification by CYP2C19 predicted metaboliser status, because PPIs are metabolised by CYP2C19.22, 23 CYP2C19 was stratified by *2 (rs4244285; directly genotyped) and *17 (rs12248560; imputed) diplotypes into: extensive (EM, *1/*1), intermediate (IM, *1/*2 or *2/*17), poor (PM, *2/*2), rapid (RM, *1/*17) and ultra‐rapid metabolisers (UM, *17/*17). Due to the small number of PM (n = 10) and UM (n = 24) patients, PMs were combined with IMs, and UMs with RMs, for analysis. […] Secondly, the impact of https://www.guidetopharmacology.org/GRAC/ObjectDisplayForward?objectId=792 rs2231142 (Q141K; imputed) on the adjusted associations of loop diuretics with the endpoints was considered.
(§2) The sensitivity and genotype‐stratified analyses were only conducted on those endpoints where the perpetrator comedication of interest had been included in the endpoint's main analysis model, and P < .05 was taken to indicate significance. All statistical testing was carried out in the R computing environment,26 except for the secondary stepwise analysis that was undertaken in IBM SPSS version 22.0 (IBM Corp, Armonk, NY, USA); boxplots were produced in GraphPad Prism (version 5.00 for Windows: GraphPad Software Inc., San Diego, USA).

[5] = Genotype-stratified analysis: PPI association with endpoints by CYP2C19 predicted metaboliser status; assay type: in vivo, human; conditions: adjusted
Procedure: as §1, §2

[6] = cited from earlier work
[7] = system: breast cancer resistance protein (BCRP, encoded by ABCG2); conditions: cited from earlier work
[8] = ABCG2 rs2231142 WT (n = 435), on LD n = 74
[9] = ABCG2 rs2231142 variant carrier (n = 136), on LD n = 22
[10] = CYP2C19 EM (n = 233), on PPI n = 88
[11] = CYP2C19 PM/IM (n = 152), on PPI n = 58
[12] = CYP2C19 RM/UM (n = 186), on PPI n = 83

Row | Structure (SMILES) | B (SE), ATV dose on analyte level [1] | B (SE), Age on analyte level [1] | B (SE), Body mass index on analyte level [1] | B (SE), Loop diuretic on analyte level [1] | B (SE), Proton pump inhibitor on analyte level [1] | B (SE), Sample storage duration on analyte level [1] | B (SE), Time since last ATV on analyte level [1] | concentration at […] ([2]; 40 mg daily, 40 mg ATV daily) [ng/mL] | concentration at […] ([2]; 80 mg daily, 80 mg ATV daily) [ng/mL] | activity against HMGCR [3] | B (SE), Loop diuretic on analyte level [4, 8] | B (SE), Loop diuretic on analyte level [4, 9] | B (SE), Proton pump inhibitor on analyte level [5, 10] | B (SE), Proton pump inhibitor on analyte level [5, 11] | B (SE), Proton pump inhibitor on analyte level [5, 12] | further results
1 | CC(C)c1c(C(=O)Nc2ccccc2O)c(-c2ccccc2)c(-c2ccc(F)cc2)n1CCC1CC(O)CC(=O)O1 (centres unmarked) [2‐OH ATV L] | 0.215 (0.051) | 0.006 (0.001) | −0.006 (0.002) | 0.084 (0.035) | 0.106 (0.026) | 0.0001 (0.00003) | −0.0006 (0.0001) | 4.24 | 7 | inactive | 0.102 (0.040) | 0.044 (0.075) | 0.065 (0.039) | 0.018 (0.057) | 0.199 (0.042) | B (SE), Hepatic disease on analyte level [1]: −0.289 (0.134)
2 | CC(C)c1c(C(=O)Nc2ccccc2O)c(-c2ccccc2)c(-c2ccc(F)cc2)n1CC[C@@H](O)C[C@@H](O)CC(=O)O [2‐OH ATV] | 0.212 (0.048) | 0.007 (0.001) | −0.006 (0.002) | 0.074 (0.033) | 0.062 (0.024) | −0.0001 (0.00003) | −0.0007 (0.0001) | 5.35 | 6.93 |  | 0.072 (0.039) | −0.051 (0.077) | 0.045 (0.038) | 0.032 (0.050) |  | B (SE), Smoking on analyte level ([1]; current vs previous/never): −0.076 (0.028); B (SE), Chronic kidney disease on analyte level [1]: 0.111 (0.051); B (SE), Diabetes mellitus on analyte level [1]: 0.079 (0.031)
3 | CC(C)c1c(C(=O)Nc2ccc(O)cc2)c(-c2ccccc2)c(-c2ccc(F)cc2)n1CCC1CC(O)CC(=O)O1 (centres unmarked) [4‐OH ATV L] |  |  |  |  |  |  |  |  |  | inactive |  |  |  |  |  | 
4 | CC(C)c1c(C(=O)Nc2ccc(O)cc2)c(-c2ccccc2)c(-c2ccc(F)cc2)n1CC[C@@H](O)C[C@@H](O)CC(=O)O [4‐OH ATV] |  |  |  |  |  |  |  |  |  | inhibit |  |  |  |  |  | 
5 | CC(C)c1c(C(=O)Nc2ccccc2)c(-c2ccccc2)c(-c2ccc(F)cc2)n1CCC1CC(O)CC(=O)O1 (centres unmarked) [ATV L] | 0.222 (0.064) |  | −0.006 (0.003) | 0.121 (0.043) | 0.139 (0.033) | 0.0002 (0.00004) | −0.0007 (0.0001) | 2.51 | 3.97 |  | 0.149 (0.048) | 0.077 (0.089) | 0.076 (0.050) | 0.084 (0.070) | 0.232 (0.053) | B (SE), Amiodarone on analyte level [1]: 0.320 (0.142); B (SE), Sex (F vs M) on analyte level [1]: −0.097 (0.038)
6 | CC(C)c1c(C(=O)Nc2ccccc2)c(-c2ccccc2)c(-c2ccc(F)cc2)n1CC[C@@H](O)C[C@@H](O)CC(=O)O [ATV, atorvastatin, reference compound] | 0.153 (0.058) | 0.004 (0.001) |  | 0.099 (0.040) | 0.093 (0.030) |  | −0.001 (0.0001) | 3.96 | 5.22 | inhibit | 0.121 (0.044) | 0.041 (0.086) | 0.052 (0.045) | 0.046 (0.061) | 0.162 (0.050) | B (SE), Amiodarone on analyte level [1]: 0.282 (0.129); fraction of an ATV dose excreted through the kidneys [6]: < 2%; concentration at 1 month ([2]; patients not on a PPI): 4.9 ng/mL; concentration at 1 month ([2]; patients not on a loop diuretic): 4.9 ng/mL; concentration at 1 month ([2]; patients on a PPI): 5.6 ng/mL; concentration at 1 month ([2]; patients on a loop diuretic): 6.8 ng/mL; increase in median ATV concentration ([2]; with PPIs vs without): 14% and ~ 14%; increase in median ATV concentration ([2]; with loop diuretics vs without): 38% and ~ 38%
7 | CCCCNc1cc(C(=O)O)cc(S(N)(=O)=O)c1Oc1ccccc1 [bumetanide] |  |  |  |  |  |  |  |  |  |  |  |  |  |  |  | inhibition of BCRP in vitro [7]: inhibit
